# Experimental data as given in PMC7023430, “4-Aminobenzoic Acid Derivatives: Converting Folate Precursor to Antimicrobial and Cytotoxic Agents” (Biomolecules, 2019).
# Like-named read-outs stand apart in the source and are kept apart here.
# Columns and labels:
# [1] = system: Candida albicans ATCC 44859; experiment: Antifungal microdilution broth method, C. albicans; type: cell-based
# How it was run: (§1)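 MIC by visual endpoint reading after twofold serial dilution of DMSO-dissolved compounds in RPMI-1640 (L-glutamine, 2% glucose, pH 7.0 with MOPS). Method follows EUCAST instructions, slightly modified; duplicates required agreement within one dilution step.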
# Candida krusei E28 = experiment: Antifungal microdilution broth method, C. krusei; type: cell-based; conditions: Pichia kudriavzevii
# How it was run: as §1
# [2] = system: Staphylococcus epidermidis H 6966/08; experiment: Antibacterial microdilution broth method, S. epidermidis; type: cell-based; conditions: Staphylococcus epidermidis, H6966/08
# [3] = system: Lichtheimia corymbifera 272; experiment: Antifungal microdilution broth method, L. corymbifera; type: cell-based
# How it was run: as §1
# [4] = system: Staphylococcus aureus ATCC 29213, CCM 4223; experiment: Antibacterial microdilution broth method, S. aureus; type: cell-based
# [5] = system: Mycobacterium avium 330/88; experiment: Antimycobacterial micromethod in Šula's medium, M. avium; type: cell-based
# Candida tropicalis 156 = experiment: Antifungal microdilution broth method, C. tropicalis; type: cell-based
# How it was run: as §1
# [6] = system: Trichophyton interdigitale 445; experiment: Antifungal microdilution broth method, T. interdigitale; type: cell-based
# How it was run: as §1
# Trichosporon asahii 1188 = experiment: Antifungal microdilution broth method, T. asahii; type: cell-based
# How it was run: as §1
# HepG2 cells = experiment: Cytotoxicity, CellTiter 96 assay; type: cell-based, human; conditions: 24 h incubation
# Description: HepG2, human hepatocellular carcinoma cells (ATCC HB-8065; passage 5–8) purchased from Health Protection Agency Culture Collections (ECACC, Salisbury, UK) were cultured in Minimum Essentials Eagle Medium supplemented with 10% fetal bovine serum, 1% L-glutamine solution and non-essential amino acid solution (Sigma-Aldrich, St. Louis, MO, USA) in a humidified atmosphere containing 5% CO2 at 37 °C. For subculturing, the cells were harvested after trypsin/EDTA (Sigma-Aldrich, St. Louis, USA) treatment at 37 °C. To evaluate cytotoxicity, the cells treated with the tested substances were used as experimental groups whereas untreated HepG2 cells served as control groups.
# The cells were seeded in a density of 10 000 cells per well in a 96-well plate. The following day the cells were treated with each of the tested substances dissolved in DMSO (maximal incubation concentration of DMSO was 1% v/v). The tested substances were prepared at different incubation concentrations in triplicates according to their solubility. Simultaneously, the controls representing 100% cell viability, 0% cell viability (the cells treated with 10% DMSO), no cell control and vehiculum controls were also involved in triplicates. After 24 h incubation in a humidified atmosphere containing 5% CO2 at 37 °C, the reagent from the kit CellTiter 96 AQueous One Solution Cell Proliferation Assay (CellTiter 96; Promega, Fitchburg, WI, USA) was added. After 2 h incubation at 37 °C absorbance of samples was recorded at 490 nm (TECAN, Infinita M200, Grödig, Austria). A standard toxicological parameter IC50 was calculated by nonlinear regression from a semilogarithmic plot of incubation concentration versus percentage of absorbance relative to untreated controls using GraphPad Prism software (version 6; GraphPad Software, Inc., La Jolla, CA, USA).
# The CellTiter 96 assay used is based on the reduction of tetrazolium dye in living cells to formazan, which is then determined colorimetrically. This reduction is related to availability of NADH or NADPH. The decline in levels of these metabolically important compounds in the cell causes that the production of formazan is reduced. For quantitative comparison of cytotoxicity, the parameter IC50 was used.
# [7] = system: Aspergillus fumigatus 231; experiment: Antifungal microdilution broth method, A. fumigatus; type: cell-based
# How it was run: as §1
# [8] = system: Mycobacterium tuberculosis H37Rv (331/88); experiment: Antimycobacterial micromethod in Šula's medium, M. tuberculosis; type: cell-based
# [9] = system: Pseudomonas aeruginosa ATCC 27853, CCM 3955; experiment: Antibacterial microdilution broth method, P. aeruginosa; type: cell-based; conditions: Pseudomonas aeruginosa, P. aeruginosa
# [10] = system: Enterococcus faecalis ATCC 29212, CCM 4224; experiment: Antibacterial microdilution broth method, E. faecalis; type: cell-based; conditions: Enterococcus faecalis
# [11] = system: M. kansasii 6509/96 (clinical isolate); experiment: Antimycobacterial micromethod in Šula's medium, M. kansasii 6509/96; type: cell-based; conditions: Mycobacterium kansasii
# [12] = system: ESBL-positive Klebsiella pneumoniae J 14368/08
# [13] = system: Escherichia coli ATCC 25922, CCM 3954; experiment: Antibacterial microdilution broth method, E. coli; type: cell-based; conditions: Escherichia coli
# [14] = ATCC44859, 24 h, read-out: MIC CA 24 h
# [15] = ATCC44859, 48 h, read-out: MIC CA 48 h
# [16] = S. epidermidis, 24 h incubation, read-out: MIC SE 24 h
# [17] = S. epidermidis, 48 h incubation, read-out: MIC SE 48 h
# [18] = 24 h incubation, read-out: MIC SA 24 h
# [19] = 48 h incubation, read-out: MIC SA 48 h
# [20] = 330/88, 336 h, 14 days incubation at 37 °C, read-out: MIC M. avium 330/88 14 d
# [21] = 330/88, 504 h, 21 days incubation at 37 °C, read-out: MIC M. avium 330/88 21 d
# [22] = 336 h, 14 days incubation at 37 °C, read-out: MIC Mtb. 331/88 14 d
# [23] = 504 h, 21 days incubation at 37 °C, read-out: MIC Mtb. 331/88 21 d
# [24] = 24 h incubation, read-out: MIC PA 24 h
# [25] = 48 h incubation, read-out: MIC PA 48 h
# [26] = 24 h incubation, read-out: MIC EF 24 h
# [27] = 48 h incubation, read-out: MIC EF 48 h
# [28] = 168 h, 7 days incubation at 37 °C, read-out: MIC M. kansasii 6509/96 7 d
# [29] = 336 h, 14 days incubation at 37 °C, read-out: MIC M. kansasii 6509/96 14 d
# [30] = 504 h, 21 days incubation at 37 °C, read-out: MIC M. kansasii 6509/96 21 d
# [31] = 24 h incubation, read-out: MIC EC 24 h
# [32] = 48 h incubation, read-out: MIC EC 48 h
# [33] = time not stated, read-out: MIC, S. epidermidis
SMILES,"MIC [1, 14] [µM]","MIC [1, 15] [µM]","MIC (Candida krusei E28; 24 h, read-out: MIC CK 24 h) [µM]","MIC (Candida krusei E28; 48 h, read-out: MIC CK 48 h) [µM]","MIC [2, 16] [µM]","MIC [2, 17] [µM]","MIC ([3]; 24 h, read-out: MIC LC 24 h) [µM]","MIC ([3]; 48 h, read-out: MIC LC 48 h) [µM]","MIC [4, 18] [µM]","MIC [4, 19] [µM]","MIC [5, 20] [µM]","MIC [5, 21] [µM]","MIC (Candida tropicalis 156; 24 h, read-out: MIC CT 24 h) [µM]","MIC (Candida tropicalis 156; 48 h, read-out: MIC CT 48 h) [µM]","MIC ([6]; 72 h, read-out: MIC TI 72 h) [µM]","MIC ([6]; 120 h, read-out: MIC TI 120 h) [µM]","MIC (Trichosporon asahii 1188; 24 h, read-out: MIC TA 24 h) [µM]","MIC (Trichosporon asahii 1188; 48 h, read-out: MIC TA 48 h) [µM]","IC50 (HepG2 cells; Homo sapiens, HepG2, 24 h) [µM]","MIC ([7]; 24 h, read-out: MIC AF 24 h) [µM]",further results
"O=C(O)c1ccc(N=Cc2cc([N+](=O)[O-])ccc2O)cc1 [1f, 4-[(2-Hydroxy-5-nitrobenzylidene)amino]benzoic acid]",500,500,> 500,> 500,250,250,500,500,500,500,1000,> 1000,> 500,> 500,500,500,500,500,244,> 500,"MIC ([7]; 48 h, read-out: MIC AF 48 h): > 500 µM; MIC [8, 22]: 250 µM; MIC [8, 23]: 500 µM; MIC [9, 24]: > 500 µM; MIC [9, 25]: > 500 µM; MIC [10, 26]: 500 µM; MIC [10, 27]: 500 µM; MIC [11, 28]: 500 µM; MIC [11, 29]: 500 µM; MIC [11, 30]: 500 µM; MIC KP-E 24 h [12]: >500 µM; MIC KP-E 48 h [12]: >500 µM; MIC [13, 31]: > 500 µM; MIC [13, 32]: > 500 µM"
"Cc1ccc(O)c(C=Nc2ccc(C(=O)O)cc2)c1 [1g, 4-[(2-Hydroxy-5-methylbenzylidene)amino]benzoic acid]",> 125,> 125,> 125,> 125,250,250,> 125,> 125,> 500,> 500,> 1000,> 1000,> 125,> 125,> 125,> 125,> 125,> 125,> 500,> 125,"MIC [2, 33]: ≥ 250 µM; IC50 (HepG2 cells): 956 µM; MIC ([7]; 48 h, read-out: MIC AF 48 h): > 125 µM; MIC [8, 22]: 500 µM; MIC [8, 23]: 500 µM; MIC [9, 24]: > 500 µM; MIC [9, 25]: > 500 µM; MIC [10, 26]: > 500 µM; MIC [10, 27]: > 500 µM; MIC [11, 28]: 500 µM; MIC [11, 29]: 500 µM; MIC [11, 30]: 1000 µM; MIC KP-E 24 h [12]: >500 µM; MIC KP-E 48 h [12]: >500 µM; MIC [13, 31]: > 500 µM; MIC [13, 32]: > 500 µM"
"COc1ccc(O)c(C=Nc2ccc(C(=O)O)cc2)c1 [1h, 4-[(2-Hydroxy-5-methoxybenzylidene)amino]benzoic acid]",250,250,500,500,500,500,> 500,> 500,> 500,> 500,1000,1000,500,500,> 500,> 500,500,500,> 500,> 500,"MIC [2, 33]: ≥ 250 µM; IC50 (HepG2 cells): 530 µM; MIC ([7]; 48 h, read-out: MIC AF 48 h): > 500 µM; MIC [8, 22]: 250 µM; MIC [8, 23]: 500 µM; MIC [9, 24]: > 500 µM; MIC [9, 25]: > 500 µM; MIC [10, 26]: > 500 µM; MIC [10, 27]: > 500 µM; MIC [11, 28]: 500 µM; MIC [11, 29]: 500 µM; MIC [11, 30]: 500 µM; MIC KP-E 24 h [12]: >500 µM; MIC KP-E 48 h [12]: >500 µM; MIC [13, 31]: > 500 µM; MIC [13, 32]: > 500 µM"
